Results published in patent US10808001B2, “Biflavone-cobalt complex, preparation method and application thereof” (NANJING FORESTRY UNIVERSITY, priority 2017, dated 2020).

What was measured:
[1] = tested on: cervical cancer cells (HeLa); test: MTT method, inhibition of cervical cancer cells (HeLa); assay type: cell-based; settings: Homo sapiens, absorbance at 595 nm, modified Karber formula, read-out: IC50, inhibition of growth of cervical cancer cells (HeLa)
Protocol: (§1) The antitumor activity of Ame and Ame-Co complex were studied by MTT method with the following process:
(§2) (1) The HepG2 and HeLa cell suspensions were inoculated into 96-well culture plates, 100 μL was added for each well, (1×10^5/mL), and then cultured in a 5% CO2 incubator at 37° C. for 24 h;
(§3) (2) After culturing for 24 h, the supernatant was discarded, 100 μL of pre-diluted sample was added, 10 replicate wells were set for each concentration, and then incubated in the 5% CO2 incubator for 24 h; meanwhile, control wells (DMSO, cell suspension, MTT), and blank wells (medium, DMSO, MTT) were set;
(§4) (3) After culturing for […], the supernatant was discarded, 100 μL of DMEM medium containing MTT (5 mg/mL) were added, and then continuously cultured for 4 h; […]
(§5) Where, IR is the inhibition rate, OD0 is the absorbance of the control group, OD1 is the absorbance of the sample group, Xm is lg (the maximum dose), I is lg (the maximum dose/adjacent dose), P is the sum of positive reaction rates, Pm is the maximum positive reaction rate, and Pn is the minimum positive reaction rate.

[2] = Pyrogallol auto-oxidation method, O2^−. free radical scavenging; settings: Tris-HCl pH 8.20, 25° C., 322 nm, read-out: IC50 to scavenge O2^−. free radical
Protocol: The free radical scavenging capacity and the total antioxidant capacity of the Ame and the Ame-Co complex were studied by pyrogallol auto-oxidation method, ABTS method and FRAP method with the following steps:
(1) Pyrogallol Auto-Oxidation Method
Determination of auto-oxidation rate V0 of pyrogallol: 2 mL Tris-HCl buffer (pH=8.20) was added to a 10 mL sample tube at 25° C., 100 μL DMSO was added as a control, after adding 0.8 mL distilled water, 0.2 mL pyrogallol solution having a concentration of 2 mmol·L^−1 was added, the mixture was poured into a cuvette after mixing uniformly, the absorbance at 322 nm was measured with pure water as a blank, the A value was recorded every 10 s for a total of 4 min, linear regression was performed with t as the abscissa, and A as the ordinate, straight line slope thereof is V0, and the measurement was performed for three times to obtain an average value. […]

herring sperm DNA (fDNA) = test: Interaction with fDNA by UV-vis spectroscopy, fluorescence spectroscopy (fDNA-EB system) and viscosity method; assay type: binding; settings: UV-vis, fluorescence (fDNA-EB) and viscosity methods
Excerpt: UV-vis spectroscopy, fluorescence spectroscopy and viscosity method are used to study the interaction between the Ame/Ame-Co complex and herring sperm DNA (fDNA) to further reveal the mechanism of antitumor activity, the obtained spectra are shown in FIGS. 7-11.

hepatoma cells (HepG2) = test: MTT method, inhibition of hepatoma cells (HepG2); assay type: cell-based; settings: Homo sapiens, HepG2, absorbance at 595 nm, modified Karber formula, read-out: IC50, inhibition of growth of hepatoma cells (HepG2)
Protocol: as §1, §2, §3, §4, §5

[3] = FRAP method, total antioxidant capacity; settings: Fe^3+-TPTZ, 37° C., 30 min, 593 nm
Protocol: Drawing of the standard curve of FeSO4.7H2O: different volumes of FeSO4.7H2O solution were added to NaAc—HAc buffer (pH=3.6) to prepare Fe^2+ solution with different concentrations. 0.5 mL TPTZ solution, 0.1 mL DMSO, and 1.9 mL NaAc—HAc buffer containing Fe^2+ were successively added into a 10 mL sample tube, after reacting for 5 min at 37° C., the UV-vis spectrum was measured, and the absorption intensity at 593 nm was recorded, and the standard curve was drawn with absorbance (A) as the vertical coordinate and Fe^2+ concentration as the horizontal coordinate.
Determination of total antioxidant capacity of the sample: 0.5 mL TPTZ solution, 0.5 mL ferric chloride solution, 0.1 mL DMSO solution containing samples of different concentrations, and 1.5 mL NaAc—HAc buffer were successively added into a 10 mL sample tube, after reacting for 30 min at 37° C., the UV-vis spectrum was measured, and the absorption intensity A1 at 593 nm was recorded, the absorbance A1 of the sample was converted to the corresponding Fe^2+ ion concentration according to the standard curve of ferrous sulfate, and the curve was drawn with the sample concentration (csample) as the horizontal coordinate and the corresponding Fe^2+ concentration (cFe2+) as the vertical coordinate. […]

SMILES | IC50 [1] [µM] | IC50 [2] [µM] | manner of interaction with fDNA (herring sperm DNA (fDNA)) | IC50 (hepatoma cells (HepG2)) [µM] | total antioxidant capacity compared with Ame at the same concentration [3] | strength of interaction with fDNA compared with Ame (herring sperm DNA (fDNA))
O=c1cc(-c2ccc(O)c(-c3c(O)cc(O)c4c(=O)cc(-c5ccc(O)cc5)oc34)c2)oc2cc(O)cc(O)c12 [Ame, amentoflavone] | 8.04 | 23.3 | in the intercalation manner | 13.6 |  | 
CS(C)=[O+][Co-4]1([O+]=S(C)C)[O+]=C2C=C(c3ccc(O)cc3)Oc3c2c(cc(O)c3-c2cc(-c3cc(=O)c4c(O)cc(O)cc4o3)ccc2O)[OH+]1 [Ame-Co complex, amentoflavone-cobalt (Ame-Co) complex] |  | 4.74 | in the intercalation manner |  | significantly stronger than that of Ame | stronger than that between the Ame and the fDNA
